Values of other authors in patent publication US20170094967A1, “OIL PALM FRUIT APPLICATION METHODS” (Valent BioSciences Corporation, priority 2015, published 2017).

System: oil palms
Settings: applied before harvest directly to the fruit

| Compound | oil yield of oil palm fruit |
| --- | --- |
| CC1=CC1 [1-MCP, 1-methylcyclopropene] | increases the oil yield |
| NCCO/C=C/[C@H](N)C(=O)O (stereo in doubt) [AVG, [S]-trans-2-amino-4-(2-aminoethoxy)-3-butenoic acid] | increases the oil yield |
